Marks after values point to notes of the source that are not given here.
Assays:
[1] = tested on: diabetic rats (streptozocin-induced diabetic neuropathy); assay: Randall and Selitto test, mechanical hyperalgesia in streptozotocin diabetic rats; assay type: in vivo, rat
Source text: In order to study the activity of levetiracetam with respect to chronic or neuropathic pain, the Applicant carried out a series of experiments based on the Randall test “A method for measurement of analgesic activity on inflamed tissue; Arch. Int. pharmacodyn., 1957, CXI, No4. P 409-419”. By virtue of this protocol, it was possible to determine the ability of levetiracetam to correct hyperalgesia secondary to induction of a neuropathic problem of metabolic origin in a rodent.
The diabetic neuropathy thereby induced allowed the correction of the hyperalgesia caused by the use of levetiracetam to be measured.
The animals used for these experiments were male Sprague-Dawley rats (Charles River, France), weighing 250-280 grams (g), which had undergone induction of diabetes one week after receipt. Male Sprague-Dawley rats (200-220 g) received one interperitoneal injection of streptozocin (75 mg/kg, i.p.) (Zanosar, Upjohn, France) dissolved in distilled water. Hyperglycaemia was confirmed one week after induction by determining the quantity of blood glucose (caudal puncture) using a Dextrostix reactive strip (Ames) read using a calorimeter (Ames Division, Miles Laboratoires, France). Animals with more than 14 millimoles (mM) were considered to be diabetic. The pain thresholds were determined 3 weeks after induction of diabetes.
This model was used in accordance with the description in COURTEIX et al., “Streptozocin-induced diabetic rats. Behavioural evidence for a model of chronic pain” Pain (1993), vol. 53, p81-88. The study was performed using the following compounds: • […]: (Laboratories UCB), dissolved in distilled water. • CARBAMAZEPINE: (Sigma), dissolved in hydroxy propel methylcellulose.
As has already been mentioned above, the test explained below was performed to stimulate a reaction in the animal with a mechanical nociceptive stimulus to a hind paw. An increasing pressure was applied using an analgesia meter (Ugo Basile, type 7200), until a cry was emitted which was considered to be the pain threshold, expressed in grams.
After determining the base thresholds, the animals received the study treatments (vehicle, levetiracetam, 17, 54, 95.2 and 120 mg/kg, carbamazepine, 10 and 30 mg/kg) administered intraperitoneally (i.p.) using the equal block method to avoid any chronobiological influence. The effects of different treatments were thus determined during the same time period. The reaction thresholds were measured 15, 30, 45, 60, 90, 120 and 180 minutes (min) after administration. All of the experiments were performed blind with 8 different animals per treatment.
The results are expressed as means±standard error of mean (S.E.M.).
The dose which could overcome 50% of the hyperalgesia induced by diabetes was calculated as the “anti-hyperalgesic dose effective 50”.
Statistical comparison was carried out by means of a two-way analysis of variance followed by Fischer's PLSD multiple comparison test to analyze the temporal effect.

[2] = tested on: healthy volunteers; assay: Clinical studies, tolerability in healthy volunteers; assay type: in vivo, human
[3] = tested on: epileptic patients; assay: Tolerability studies in epileptic patients; assay type: in vivo, human; settings: doses up to 4000 mg/day; preliminary data
[4] = tested on: 55 different binding sites including different receptor systems, reuptake sites, second messenger systems and channel proteins; settings: in vitro; cited from earlier work
[5] = tested on: chloride fluxes induced by muscimol; settings: cited from earlier work
[6] = tested on: GABA levels, GABA transaminase and glutamic decarboxylase; settings: mouse brain; cited from earlier work
[7] = Plasma and brain levels after oral dosing in sound-sensitive mice; settings: male, genetically sound-sensitive, derived from a DBA strain, mouse, brain, po, 166.2 mg/kg
Protocol: Male genetically sound-sensitive mice (17-30 g; N=10), derived from a DBA strain originally selected by Dr Lehmann of the Laboratory of Acoustic Physiology (Paris) and bred in the UCB Pharma Sector husbandry unit since 1978, were submitted to the induction of audiogenic seizures. Levetiracetam (5.4 mg/kg) and sodium valproate (166.2 mg/kg) were administered orally, alone or in combination, 60 minutes before the induction of audiogenic seizures. For testing audiogenic seizure, the mice were placed in the cages, one mouse per cage, in the sound-attenuated chamber. After a period of habituation of 30 seconds, the acoustic stimulus (90 dB, 10-20 kHz) was delivered for 30 seconds via the loud speakers. During this interval, the mice were observed and the presence of the 3 phases of the seizure activity, namely wild running, clonic and tonic convulsions, was recorded.
In all animals, blood samples were collected immediately after the seizure test (I h after dosing) by cardiac puncture under light carbon dioxide anesthesia, into heparinised microtubes. […] Levetiracetam was measured in plasma and brain samples by validated gas chromatography assay with mass detection. With sodium valproate, fluorescence polarization immunoassays were used.
The mean value plus standard deviation was calculated for plasma and brain concentrations of valproate and levetiracetam, and for the brain/plasma ratio. […]

For `CC[C@@H](C(N)=O)N1CCCC1=O` [Levetiracetam, (S)-(−)α-ethyl-2-oxo-1-pyrrolidineacetamide], the “anti-hyperalgesic effective dose 50” value ([1]; dose overcoming 50% of the hyperalgesia induced by diabetes, i.p.) was 35.1 ± 1.8 mg/kg, the “Effect on diabetic hyperalgesia (in words)” value ([1]; i.p., diabetic rats) was “a dose of 120 mg/kg of levetiracetam caused complete correction of hyperalgesia” and the vocalization threshold ([1]; levetiracetam 17 mg/kg i.p. group, before diabetes (baseline), mean (SEM)) was 282.2 (5.48) g. For the same compound, the vocalization threshold ([1]; levetiracetam 17 mg/kg i.p., 15 min after injection) was 211.9 (7.19)* g, the vocalization threshold ([1]; levetiracetam 17 mg/kg i.p., 30 min after injection) was 206.3 (10.12)* g and the vocalization threshold ([1]; levetiracetam 17 mg/kg i.p., 45 min after injection) was 193.1 (7.19) g. The vocalization threshold ([1]; levetiracetam 17 mg/kg i.p., 60 min after injection) was 185.6 (4.86) g, the vocalization threshold ([1]; levetiracetam 17 mg/kg i.p., 90 min after injection) was 178.1 (3.40) g and the vocalization threshold ([1]; levetiracetam 17 mg/kg i.p., 120 min after injection) was 180.0 (2.83) g. The vocalization threshold ([1]; levetiracetam 17 mg/kg i.p., 180 min after injection) was 176.3 (2.45) g, the vocalization threshold ([1]; levetiracetam 17 mg/kg i.p., after diabetes, 0 min (base threshold)) was 181.9 (3.09) g and the vocalization threshold ([1]; levetiracetam 54 mg/kg i.p. group, before diabetes (baseline), mean (SEM)) was 296.3 (10.12) g. The vocalization threshold ([1]; levetiracetam 54 mg/kg i.p., 15 min after injection) was 238.1 g, the vocalization threshold ([1]; levetiracetam 54 mg/kg i.p., 30 min after injection) was 243.8 (15.97)* g and the vocalization threshold ([1]; levetiracetam 54 mg/kg i.p., 45 min after injection) was 230.6 g. For the same compound, the vocalization threshold ([1]; levetiracetam 54 mg/kg i.p., 60 min after injection) was 189.4 (13.87) g, the vocalization threshold ([1]; levetiracetam 54 mg/kg i.p., 90 min after injection) was 176.3 (8.39) g and the vocalization threshold ([1]; levetiracetam 54 mg/kg i.p., 120 min after injection) was 176.3 (6.80) g. The vocalization threshold ([1]; levetiracetam 54 mg/kg i.p., 180 min after injection) was 176.3 (6.80) g, the vocalization threshold ([1]; levetiracetam 54 mg/kg i.p., after diabetes, 0 min (base threshold)) was 180.0 (5.30) g and the vocalization threshold ([1]; levetiracetam 95.2 mg/kg i.p. group, before diabetes (baseline), mean (SEM)) was 306.6 (11.73) g. For the same compound, the vocalization threshold ([1]; levetiracetam 95.2 mg/kg i.p., 15 min after injection) was 264.4 g, the vocalization threshold ([1]; levetiracetam 95.2 mg/kg i.p., 30 min after injection) was 283.1 (24.62)* g and the vocalization threshold ([1]; levetiracetam 95.2 mg/kg i.p., 45 min after injection) was 234.4 g. The vocalization threshold ([1]; levetiracetam 95.2 mg/kg i.p., 60 min after injection) was 180.0 (12.36) g, the vocalization threshold ([1]; levetiracetam 95.2 mg/kg i.p., 90 min after injection) was 180.0 (8.02) g and the vocalization threshold ([1]; levetiracetam 95.2 mg/kg i.p., 120 min after injection) was 159.4 (3.95) g. For the same compound, the vocalization threshold ([1]; levetiracetam 95.2 mg/kg i.p., 180 min after injection) was 163.1 (4.43) g, the vocalization threshold ([1]; levetiracetam 95.2 mg/kg i.p., after diabetes, 0 min (base threshold)) was 169.7 (6.00) g and the vocalization threshold ([1]; levetiracetam 120 mg/kg i.p. group, before diabetes (baseline), mean (SEM)) was 309.4 (15.25) g. The vocalization threshold ([1]; levetiracetam 120 mg/kg i.p., 15 min after injection) was 331.9 g, the vocalization threshold ([1]; levetiracetam 120 mg/kg i.p., 30 min after injection) was 315.0 (30.00)* g and the vocalization threshold ([1]; levetiracetam 120 mg/kg i.p., 45 min after injection) was 262.5 g. The vocalization threshold ([1]; levetiracetam 120 mg/kg i.p., 60 min after injection) was 213.8 (13.52)* g, the vocalization threshold ([1]; levetiracetam 120 mg/kg i.p., 90 min after injection) was 176.3 (7.36) g and the vocalization threshold ([1]; levetiracetam 120 mg/kg i.p., 120 min after injection) was 174.4 (6.30) g. The vocalization threshold ([1]; levetiracetam 120 mg/kg i.p., 180 min after injection) was 168.8 (4.70) g, the vocalization threshold ([1]; levetiracetam 120 mg/kg i.p., after diabetes, 0 min (base threshold)) was 161.3 (7.23) g and the “tolerability (in words)” value ([2]; repeated doses 1500 mg/day for 14 days) was “well tolerated”. For the same compound, the “tolerability (in words)” value ([2]; single dose) was “well tolerated”, the “tolerability (in words)” value [3] was “good tolerability” and the “displacement of ligands specific for 55 different binding sites” value [4] was “not revealed any significant displacement”. For the same compound, the “modulation of chloride fluxes induced by muscimol” value [5] was “did not modulate” and the “effect on GABA levels and the enzymatic activities of GABA transaminase and glutamic decarboxylase” value [6] was “lack of effect”.

`CCCC(CCC)C(=O)[O-].[Na+]` [Valproate, sodium valproate] showed a Kp at 1 h [7] of 0.13 ± 0.02.
